# According to US20260262643A1, “HERBICIDAL BENZOXAZINES” (FMC CORPORATION, priority 2022, published 2026):
# How the values were obtained:
# ducksalad = experiment: Test D flooded paddy test; type: in vivo, Heteranthera limosa; conditions: 250 g ai/ha, applied to paddy water, visual rating after 13 to 14 days, scale 0 to 100 (0 no effect, 100 complete control)
# Summary of the method: (§1)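 Plants at the 2-leaf stage were grown in pots flooded to 3 cm, and compound was applied directly into the paddy water, with depth kept throughout. After 13–14 days in a greenhouse, injury was rated visually against untreated controls on a 0–100 scale (100 = complete control); a dash means not tested.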
# green foxtail [1] = experiment: Test C preemergence; type: in vivo, Setaria viridis; conditions: 0 to 100 scale (0 no effect, 100 complete control)
# Summary of the method: (§2)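 Visual injury ratings on a 0–100 scale (100 = complete control) were made against untreated controls 10 days after treatment in the greenhouse. Compounds, formulated with surfactant in non-phytotoxic solvent, were sprayed on soil preemergence or onto one- to two-leaf plants 2–10 cm tall postemergence.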
# pigweed, palmer [2] = experiment: Test C preemergence; type: in vivo, Amaranthus palmeri; conditions: 0 to 100 scale (0 no effect, 100 complete control)
# Summary of the method: as §2
# pigweed, palmer [3] = experiment: Test C postemergence; type: in vivo, Amaranthus palmeri; conditions: 10 days
# Summary of the method: as §2
# ragweed [4] = experiment: Test C preemergence; type: in vivo, Ambrosia artemisiifolia; conditions: 0 to 100 scale (0 no effect, 100 complete control)
# Summary of the method: as §2
# corn [5] = experiment: Test C postemergence; type: in vivo, Zea mays; conditions: 10 days
# Summary of the method: as §2
# kochia [6] = experiment: Test C postemergence; type: in vivo, Bassia scoparia; conditions: 10 days
# Summary of the method: as §2
# soybean [7] = experiment: Test C preemergence; type: in vivo, Glycine max; conditions: 0 to 100 scale (0 no effect, 100 complete control)
# Summary of the method: as §2
# horseweed = experiment: Test C postemergence; type: in vivo, Erigeron canadensis; conditions: 10 days
# Summary of the method: as §2
# wheat [8] = experiment: Test C postemergence; type: in vivo, Triticum aestivum; conditions: 10 days
# Summary of the method: as §2
# blackgrass [9] = experiment: Test C postemergence; type: in vivo, Alopecurus myosuroides; conditions: 10 days
# Summary of the method: as §2
# ryegrass, Italian [10] = experiment: Test C preemergence; type: in vivo, Lolium multiflorum; conditions: 0 to 100 scale (0 no effect, 100 complete control)
# Summary of the method: as §2
# blackgrass [11] = experiment: Test C preemergence; type: in vivo, Alopecurus myosuroides; conditions: 0 to 100 scale (0 no effect, 100 complete control)
# Summary of the method: as §2
# corn [12] = experiment: Test C preemergence; type: in vivo, Zea mays; conditions: 0 to 100 scale (0 no effect, 100 complete control)
# Summary of the method: as §2
# oat, wild [13] = experiment: Test C postemergence; type: in vivo, Avena fatua; conditions: 10 days
# Summary of the method: as §2
# oat, wild [14] = experiment: Test C preemergence; type: in vivo, Avena fatua; conditions: 0 to 100 scale (0 no effect, 100 complete control)
# Summary of the method: as §2
# rice = experiment: Test D flooded paddy test; type: in vivo, Oryza sativa; conditions: 250 g ai/ha, applied to paddy water, visual rating after 13 to 14 days, scale 0 to 100 (0 no effect, 100 complete control)
# Summary of the method: as §1
# barnyardgrass [15] = experiment: Test D flooded paddy test; type: in vivo, Echinochloa crus-galli; conditions: 250 g ai/ha, applied to paddy water, visual rating after 13 to 14 days, scale 0 to 100 (0 no effect, 100 complete control)
# Summary of the method: as §1
# sedge, umbrella = experiment: Test D flooded paddy test; type: in vivo, Cyperus difformis; conditions: 250 g ai/ha, applied to paddy water, visual rating after 13 to 14 days, scale 0 to 100 (0 no effect, 100 complete control)
# Summary of the method: as §1
# kochia [16] = experiment: Test C preemergence; type: in vivo, Bassia scoparia; conditions: 0 to 100 scale (0 no effect, 100 complete control)
# Summary of the method: as §2
# soybean [17] = experiment: Test C postemergence; type: in vivo, Glycine max; conditions: 10 days
# Summary of the method: as §2
# wheat [18] = experiment: Test C preemergence; type: in vivo, Triticum aestivum; conditions: 0 to 100 scale (0 no effect, 100 complete control)
# Summary of the method: as §2
# barnyardgrass [19] = experiment: Test C postemergence; type: in vivo, Echinochloa crusgalli; conditions: 10 days
# Summary of the method: as §2
# ragweed [20] = experiment: Test C postemergence; type: in vivo, Ambrosia artemisiifolia; conditions: 10 days
# Summary of the method: as §2
# green foxtail [21] = experiment: Test C postemergence; type: in vivo, Setaria viridis; conditions: 10 days
# Summary of the method: as §2
# ryegrass, Italian [22] = experiment: Test C postemergence; type: in vivo, Lolium multiflorum; conditions: 10 days
# Summary of the method: as §2
# barnyardgrass [23] = experiment: Test C preemergence; type: in vivo, Echinochloa crusgalli; conditions: 0 to 100 scale (0 no effect, 100 complete control)
# Summary of the method: as §2
# [24] = Preemergence, 500 g ai/ha, visual rating after 10 days
# [25] = Test C, preemergence, 125 g ai/ha
# [26] = 125 g ai/ha, postemergence, 0 to 100 scale, 0 no effect, 100 complete control
# [27] = Postemergence, 500 g ai/ha, visual 0 to 100 scale (0 no effect, 100 complete control)
compound,measurement,setting,value
Cc1ccc(-n2cnc(CS(C)(=O)=O)n2)cc1C(=O)N1C[C@H](C)Oc2c(Cl)cccc21 [Compound 225],"Plant response rating, Ducksalad (Flood)",ducksalad,100
same,"Plant response rating, Foxtail, Green",green foxtail [1]; [24],100
same,"Foxtail, Green plant response rating",green foxtail [1]; [25],100
same,"Plant response rating, Pigweed, Palmer","pigweed, palmer [2]; [24]",100
same,"Pigweed, Palmer plant response rating","pigweed, palmer [2]; [25]",100
same,"Plant response rating, Pigweed, Palmer","pigweed, palmer [3]; [26]",90
same,"Plant response rating, Pigweed, Palmer","pigweed, palmer [3]; [27]",100
same,"Plant response rating, Ragweed",ragweed [4]; [24],90
same,Ragweed plant response rating,ragweed [4]; [25],70
same,"Plant response rating, Corn",corn [5]; [26],80
same,"Plant response rating, Corn",corn [5]; [27],90
same,"Plant response rating, Kochia",kochia [6]; [26],80
same,"Plant response rating, Kochia",kochia [6]; [27],90
same,"Plant response rating, Soybean",soybean [7]; [24],90
same,Soybean plant response rating,soybean [7]; [25],80
same,"Plant response rating, Horseweed",horseweed; [26],20
same,"Plant response rating, Horseweed",horseweed; [27],80
same,"Plant response rating, Wheat",wheat [8]; [26],30
same,"Plant response rating, Wheat",wheat [8]; [27],90
same,"Plant response rating, Blackgrass",blackgrass [9]; [26],50
same,"Plant response rating, Blackgrass",blackgrass [9]; [27],90
same,"Plant response rating, Ryegrass, Italian","ryegrass, Italian [10]; [24]",80
same,"Ryegrass, Italian plant response rating","ryegrass, Italian [10]; [25]",60
same,"Plant response rating, Blackgrass",blackgrass [11]; [24],80
same,Blackgrass plant response rating,blackgrass [11]; [25],60
same,"Plant response rating, Corn",corn [12]; [24],90
same,Corn plant response rating,corn [12]; [25],20
same,"Plant response rating, Oat, Wild","oat, wild [13]; [26]",60
same,"Plant response rating, Oat, Wild","oat, wild [13]; [27]",70
same,"Plant response rating, Oat, Wild","oat, wild [14]; [24]",90
same,"Oat, Wild plant response rating","oat, wild [14]; [25]",60
same,"Plant response rating, Rice (Flood)",rice,15
same,"Plant response rating, Barnyardgrass (Flood)",barnyardgrass [15],25
same,"Plant response rating, Sedge, Umbrella (Flood)","sedge, umbrella",100
same,"Plant response rating, Kochia",kochia [16]; [24],100
same,Kochia plant response rating,kochia [16]; [25],20
same,"Plant response rating, Soybean",soybean [17]; [26],100
same,"Plant response rating, Soybean",soybean [17]; [27],100
same,"Plant response rating, Wheat",wheat [18]; [24],80
same,Wheat plant response rating,wheat [18]; [25],20
same,"Plant response rating, Barnyardgrass",barnyardgrass [19]; [26],20
same,"Plant response rating, Barnyardgrass",barnyardgrass [19]; [27],70
same,"Plant response rating, Ragweed",ragweed [20]; [26],90
same,"Plant response rating, Ragweed",ragweed [20]; [27],90
same,"Plant response rating, Foxtail, Green",green foxtail [21]; [26],20
same,"Plant response rating, Foxtail, Green",green foxtail [21]; [27],90
same,"Plant response rating, Ryegrass, Italian","ryegrass, Italian [22]; [26]",70
same,"Plant response rating, Ryegrass, Italian","ryegrass, Italian [22]; [27]",90
same,"Plant response rating, Barnyardgrass",barnyardgrass [23]; [24],100
same,Barnyardgrass plant response rating,barnyardgrass [23]; [25],50
